Measurements reported in patent US20240002375A1, “2-(INDAZOL-5-YL)-6-(PIPERIDIN-4-YL)-1,7-NAPHTHYRIDINE DERIVATIVES AND RELATED COMPOUNDS AS MODULATORS FOR SPLICING NUCLEIC ACIDS AND FOR THE TRE” (REMIX THERAPEUTICS INC., priority 2020, published 2024).
Where a name gives a salt, the structure may show the parent alone. Read-outs that look alike come from different tables or passages of the source.

Legend:
Assay type in all cases: cell-based
HTT mRNA = experiment: Splicing assay (RT-qPCR) of HTT mRNA alternative junction (AJ) and canonical junction (CJ)
Summary of the method: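 HTT splice switching read as formation of an alternative-exon junction (AJ) versus the canonical junction (CJ) by one-step RT-qPCR on cell lysates, with GAPDH/GUSB housekeeping normalisation in K562 and PPIA in A673. Compounds: 11-point 3-fold series up to 10 uM, ≤0.25% DMSO, 24 h at 37 °C.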

HTT CJ mRNA = experiment: Gene panel canonical junction qPCR splicing assay, HTT; details: Table 4, read-out: HTT IC50 (decrease in CJ mRNA levels)
Summary of the method: (§1)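 A673 or K562 cells treated with compound; canonical-junction mRNA measured by RT-qPCR with junction-spanning primer/probe sets, normalized to GAPDH, GUSB or PPIA and DMSO (2^−ΔΔCt). IC50 for CJ decrease from 4-parameter logistic fit of percentage response.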

SMN2 CJ mRNA = experiment: Gene panel canonical junction qPCR splicing assay, SMN2; details: Table 4, read-out: SMN2 IC50 (decrease in CJ mRNA levels)
Summary of the method: as §1

Target C CJ mRNA = experiment: Gene panel canonical junction qPCR splicing assay, Target C; details: Table 4, read-out: Target C IC50 (decrease in CJ mRNA levels)
Summary of the method: as §1

[1] = decrease in CJ mRNA, A673 or K562 cells, 24 hours, read-out: HTT CJ IC50
[2] = increase in AJ mRNA, A673 or K562 cells, 24 hours, read-out: HTT AJ AC50

IC50 (HTT mRNA; [1]) [nM]	IC50 (HTT CJ mRNA) [nM]	IC50 (SMN2 CJ mRNA) [nM]	IC50 (Target C CJ mRNA) [nM]	SMILES	AC50 (HTT mRNA; [2]) [nM]	AC50 (HTT mRNA; 24 h, read-out: HTT AJ AC50 (nM)) [nM]	IC50 (HTT mRNA; 24 h, read-out: HTT CJ IC50 (nM)) [nM]
100 to 1000	100 to 1000	< 100	1000 to 10000	CCC1CN(c2ccc3nc(-c4cc5cn(C)nc5cc4O)ccc3n2)CCN1 (stereo not shown) [Compound 119, 5-[6-(3-ethylpiperazin-1-yl)-1,5-naphthyridin-2-yl]-2-methylindazol-6-ol]	1000 to 10000		
< 100	< 100	< 100	< 100	Cc1c(O)c(-c2ccc3nc(N4CCC(NC5(C)CC5)C4)ccc3n2)cc2cn(C)nc12 (racemic) [Compound 224, 2,7-dimethyl-5-(6-{3-[(1-methylcyclopropyl)amino]pyrrolidin-1-yl}-1,5-naphthyridin-2-yl) indazol-6-ol]	< 100		
< 100	< 100	< 100	1000 to 10000	Cc1nc2cc(O)c(-c3ccc4nc(N5CC[C@@H](NC(C)(C)C)C5)ccc4n3)cc2o1 [Compound 210]	< 100		
1000 to 10000	1000 to 10000	< 100	1000 to 10000	Cn1cc2cc(-c3ccc4nc(N5CC[C@H](NC6COC6)C5)ccc4n3)c(O)cc2n1 (stereo in doubt) [Compound 189]	100 to 1000		
100 to 1000	100 to 1000	< 100	1000 to 10000	Cn1cc2cc(-c3ncc4nc(C5CCNCC5)ccc4n3)c(O)cc2n1 [Compound 107, 2-methyl-5-[6-(piperidin-4-yl)pyrido[3,2-d]pyrimidin-2-yl]indazol-6-ol]	100 to 1000		
1000 to 10000	1000 to 10000	1000 to 10000	1000 to 10000	Cn1cc2cc(-c3ccc4nc(N5CCNC6(CC6)C5)ccc4n3)c(O)cc2n1 [Compound 121, 5-(6-[4,7-diazaspiro[2.5]octan-7-yl]-1,5-naphthyridin-2-yl)-2-methylindazol-6-ol]	1000 to 10000		
< 100	< 100	> 10000	< 100	Cn1cc2cc(-c3ccc4nc(N5CCC(NC(C)(C)C)C5)ccc4n3)c(O)c(F)c2n1 (stereo not shown) [Compound 202]	< 100		
< 100	< 100	< 100	100 to 1000	Cn1cc2cc(-c3ccc4nc(N5CC[C@@H](NC6CCC6)C5)ccc4n3)c(O)cc2n1 [Compound 157]	< 100		
1000 to 10000	1000 to 10000	1000 to 10000	1000 to 10000	Cn1cc2nc(-c3ccc4nc(C5CCNCC5)ccc4n3)c(F)cc2n1 [Compound 205, 2-{6-fluoro-2-methylpyrazolo[4,3-b]pyridin-5-yl}-6-(piperidin-4-yl)-1,5-naphthyridine]	1000 to 10000		
< 100	< 100	< 100	< 100	Cn1cc2cc(-c3ccc4nc(C5CCNCC5)ccc4n3)c(O)c(F)c2n1 [Compound 102, 7-fluoro-2-methyl-5-[6-(piperidin-4-yl)-1,5-naphthyridin-2-yl]indazol-6-ol]	< 100		
< 100	< 100	< 100	< 100	Cn1cc2cc(-c3ccc4nc(N5CCC(N)C5)ccc4n3)c(O)c(F)c2n1 (stereo not shown) [Compound 238, 5-[6-(3-aminopyrrolidin-1-yl)-1,5-naphthyridin-2-yl]-7-fluoro-2-methylindazol-6-ol]	< 100		
1000 to 10000	1000 to 10000	< 100	1000 to 10000	Cc1nc2cc(O)c(-c3ccc4nc(C5CCNCC5)ccc4n3)cc2s1 [Compound 148]	1000 to 10000		
1000 to 10000	1000 to 10000	< 100	1000 to 10000	CC1CN(c2ccc3nc(-c4cc5cn(C)nc5cc4O)ccc3n2)CCN1 (stereo not shown) [Compound 117, 2-methyl-5-[6-(3-methylpiperazin-1-yl)-1,5-naphthyridin-2-yl]indazol-6-ol]	1000 to 10000		
< 100	< 100	< 100	< 100	CC(C)N[C@@H]1CCN(c2ccc3nc(-c4cc5cn(C)nc5cc4O)ccc3n2)C1 [Compound 173]	< 100		
< 100	< 100	< 100	< 100	Cc1nc2cc(O)c(-c3ccc4nc(N5CC[C@@H](NC(C)C)C5)ccc4n3)cc2o1 (single isomer, unassigned) [Compound 232, 6-{6-[3-(isopropylamino)pyrrolidin-1-yl]-1,5-naphthyridin-2-yl}-2-methyl-1,3-benzoxazol-5-ol]	< 100		
100 to 1000	100 to 1000	100 to 1000	100 to 1000	Cc1cn2cc(-c3ccc4nc(C5CCNCC5)ccc4n3)c(O)c(C)c2n1 [Compound 151, 2,8-dimethyl-6-(6-(piperidin-4-yl)-1,5-naphthyridin-2-yl)imidazo[1,2-a]pyridin-7-ol hydrochloride]	100 to 1000		
100 to 1000	100 to 1000	< 100	100 to 1000	CN1CCC(c2ccc3nc(-c4cc5cn(C)nc5cc4O)ccc3n2)CC1 [Compound 142, 2-methyl-5-[6-(1-methylpiperidin-4-yl)-1,5-naphthyridin-2-yl]indazol-6-ol]	100 to 1000		
100 to 1000	100 to 1000	100 to 1000	100 to 1000	Cn1cc2cc(-c3ccc4nc(N5CCC56CCNCC6)ccc4n3)c(O)cc2n1 [Compound 164]	100 to 1000		
< 100	< 100	< 100	< 100	Cc1c(O)c(-c2ccc3nc(N4CC[C@H](NC5CC5)C4)ccc3n2)cc2cn(C)nc12 (single isomer, unassigned) [Compound 260]	< 100		
> 10000	> 10000	> 10000	> 10000	O=C(NCc1ccn[nH]1)Nc1cc2nc(N3CCNCC3)ccc2cn1 [Compound 112, 1-[2-(piperazin-1-yl)-1,6-naphthyridin-7-yl]-3-(2H-pyrazol-3-ylmethyl)urea]	> 10000		
< 100	> 10000	> 10000	> 10000	Cc1c(O)c(-c2ccc3nc(N4CCC(NC(C)(C)C)C4)ccc3n2)cc2cn(C)nc12 (stereo not shown) [Compound 191, 5-{6-[3-(tert-butylamino)pyrrolidin-1-yl]-1,5-naphthyridin-2-yl}-2,7-dimethylindazol-6-ol hydrochloride]	< 100		
< 100	< 100	< 100	< 100	Cc1nc2c(C)c(O)c(-c3ccc4nc(N5CCC(NC(C)(C)C)C5)ccc4n3)cc2o1 (single isomer, unassigned) [Compound 214, 6-{6-[3-(tert-butylamino)pyrrolidin-1-yl]-1,5-naphthyridin-2-yl}-2,4-dimethyl-1,3-benzoxazol-5-ol]	< 100		
100 to 1000	100 to 1000	< 100	100 to 1000	Cc1nc2cc(O)c(-c3ccc4nc(N5CCC(N)C5)ccc4n3)cc2o1 (stereo not shown) [Compound 234, 6-[6-(3-aminopyrrolidin-1-yl)-1,5-naphthyridin-2-yl]-2-methyl-1,3-benzoxazol-5-ol]	< 100		
100 to 1000	100 to 1000	> 10000	1000 to 10000	Cc1cn2nc(-c3ccc4nc(C5CCNCC5)ccc4n3)c(O)cc2n1 [Compound 103, 2-methyl-6-[6-(piperidin-4-yl)-1,5-naphthyridin-2-yl]imidazo[1,2-b]pyridazin-7-ol]	100 to 1000		
< 100	< 100	< 100	100 to 1000	C[C@H]1C[C@@H](c2ccc3nc(-c4cc5cn(C)nc5cc4O)ccc3n2)CCN1 (relative stereo) [Compound 140, 2-methyl-5-[6-[(2S,4S)-2-methylpiperidin-4-yl]-1,5-naphthyridin-2-yl]indazol-6-ol]	100 to 1000		
> 10000	1000 to 10000	> 10000	> 10000	Cn1cc2cc(-c3ccc4nc(N5CC(C)(C)NC(C)(C)C5)ccc4n3)c(O)cc2n1 [Compound 122, 2-methyl-5-[6-(3,3,5,5-tetramethylpiperazin-1-yl)-1,5-naphthyridin-2-yl]indazol-6-ol]	> 10000		
1000 to 10000	1000 to 10000	< 100	1000 to 10000	Cn1cc2cc(-c3ccc4c(F)c(C5CCNCC5)ccc4n3)c(O)cc2n1 [Compound 115, 5-[5-fluoro-6-(piperidin-4-yl)quinolin-2-yl]-2-methylindazol-6-ol]	1000 to 10000		

SMILES	IC50 (HTT mRNA; [1]) [nM]	IC50 (HTT CJ mRNA) [nM]	IC50 (SMN2 CJ mRNA) [nM]	IC50 (Target C CJ mRNA) [nM]	AC50 (HTT mRNA; [2]) [nM]	AC50 (HTT mRNA; 24 h, read-out: HTT AJ AC50 (nM)) [nM]	IC50 (HTT mRNA; 24 h, read-out: HTT CJ IC50 (nM)) [nM]
Cn1cc2cc(-c3ccc4nc(N5C[C@H]6CC[C@@H](C5)N6)ccc4n3)c(O)cc2n1 [Compound 135, 5-[6 [(1R,5 S)-3,8-diazabicyclo[3.2.1]octan-3-yl]-1,5-naphthyridin-2-yl]-2-methylindazol-6-01]	1000 to 10000	1000 to 10000	< 100	1000 to 10000	1000 to 10000		
CC(C)N[C@H]1CCN(c2ccc3nc(-c4cc5cn(C)nc5cc4O)ccc3n2)C1 [Compound 171]		< 100	< 100	100 to 1000		< 100	< 100
